Results on 18 compounds are retold here after ChEMBL document CHEMBL5550122, “Photodynamic anticancer activity evaluation of novel 5-aminolevulinic acid and 3-hydroxypyridinone conjugates” (Bioorg Med Chem, 2024).

Data set [1] has as its system MCF7. In words: Cytotoxicity against human MCF7 cells assessed as reduction in cell viability at 100 to 400 uM preincubated for 4 hrs under dark condition followed by irradiation with blue light at 5 J.cm^-2 energy level and measured after 18 hrs by MTT assay. The data set is classed as functional, cell-based. The settings on record: dose 100-400 µM, time 22.0 hrs.

The subject of data set [2] is HeLa. Kind of data set: Cytotoxicity against human HeLa cells assessed as reduction in cell viability at 100 to 400 uM incubated for 4 hrs under dark condition by MTT assay. The settings on record: dose 100-400 µM. Type of data set: functional, cell-based.
For data set [3], the system named is A-375. Kind of data set: Cytotoxicity against human A-375 cells assessed as reduction in cell viability at 100 to 400 uM incubated for 4 hrs under dark condition by MTT assay. Type of data set: functional, cell-based. The settings on record: dose 100-400 µM.
In data set [4] the test system is MCF7. Kind of data set: Cytotoxicity against human MCF7 cells assessed as reduction in cell viability at 100 to 400 uM incubated for 4 hrs under dark condition by MTT assay. Type of data set: functional, cell-based. The settings on record: dose 100-400 µM.
Data set [5] relates to HeLa. Kind of data set: Cytotoxicity against human HeLa cells assessed as reduction in cell viability at 100 to 400 uM preincubated for 4 hrs under dark condition followed by irradiation with blue light at 5 J.cm^-2 energy level and measured after 18 hrs by MTT assay. Type of data set: functional, cell-based. The settings on record: dose 100-400 µM, time 22.0 hrs.
The subject of data set [6] is A-375. Kind of data set: Cytotoxicity against human A-375 cells assessed as reduction in cell viability at 100 to 400 uM preincubated for 4 hrs under dark condition followed by irradiation with blue light at 5 J.cm^-2 energy level and measured after 18 hrs by MTT assay. The data set is classed as functional, cell-based. The settings on record: dose 100-400 µM, time 22.0 hrs.

A short description of data set [7]: Prodrug release in human A-375 cells assessed as 3-[(1Z,4Z,9Z,15Z)-7-(2-carboxyethyl)-3,8,12,17-tetramethyl-13,18-divinyl-21,23-dihydroporphyrin-2-yl]propanoic acid release by measuring increase in fluorescence intensity at 20 to 80 uM by microplate reader analysis. The data set is classed as ADME, cell-based. The settings on record: a-375, 80 µM, dose 20-80 µM.

The test system of data set [8] is MCF7. Kind of data set: Cytotoxicity against human MCF7 cells assessed as reduction in cell viability at 100 uM incubated for 4 hrs under dark condition by MTT assay. The data set is classed as functional, cell-based.
A short description of data set [9]: Prodrug release in human MCF7 cells assessed as 3-[(1Z,4Z,9Z,15Z)-7-(2-carboxyethyl)-3,8,12,17-tetramethyl-13,18-divinyl-21,23-dihydroporphyrin-2-yl]propanoic acid release by measuring increase in fluorescence intensity at 20 to 80 uM by microplate reader analysis. The data set is classed as ADME, cell-based. The settings on record: mcf7, 80 µM, dose 20-80 µM.

Data set [10] has as its system HeLa. Kind of data set: Cytotoxicity against human HeLa cells assessed as reduction in cell viability preincubated for 4 hrs under dark condition followed by irradiation with blue light at 2.5 J.cm^-2 energy level for 5 mins and measured after 18 hrs by MTT assay. The data set is classed as functional, cell-based. The settings on record: light or radiation study.
Data set [11] is described as follows: Prodrug release in human Hela cells assessed as 3-[(1Z,4Z,9Z,15Z)-7-(2-carboxyethyl)-3,8,12,17-tetramethyl-13,18-divinyl-21,23-dihydroporphyrin-2-yl]propanoic acid release by measuring increase in fluorescence intensity at 20 to 80 uM by microplate reader analysis. The settings on record: dose 20-80 µM. Type of data set: ADME, cell-based.
Data set [12] in a line: Drug metabolism assessed as esterase (unknown origin) mediated hydrolysis by measuring hydroxypyridinone formation. The data set is classed as ADME. The settings on record: human.
Data set [13] deals with HeLa. In words: Cytotoxicity against human HeLa cells assessed as reduction in cell viability at 100 uM incubated for 4 hrs under dark condition by MTT assay. Type of data set: functional, cell-based.
Data set [14] relates to MCF7. In words: Cytotoxicity against human MCF7 cells assessed as reduction in cell viability preincubated for 4 hrs under dark condition followed by irradiation with blue light at 2.5 J.cm^-2 energy level for 5 mins and measured after 18 hrs by MTT assay. Type of data set: functional, cell-based. The settings on record: MCF7, light or radiation study.
Data set [15] concerns A-375. In words: Cytotoxicity against human A-375 cells assessed as reduction in cell viability at 100 uM incubated for 4 hrs under dark condition by MTT assay. Type of data set: functional, cell-based.
The test system of data set [16] is A-375. In words: Cytotoxicity against human A-375 cells assessed as reduction in cell viability preincubated for 4 hrs under dark condition followed by irradiation with blue light at 2.5 J.cm^-2 energy level for 5 mins and measured after 18 hrs by MTT assay. Type of data set: functional, cell-based. The settings on record: A-375, light or radiation study.
The nature of data set [17]: Drug metabolism assessed as esterase (unknown origin) mediated hydrolysis by measuring 5-Aminolevulinic acid formation. Type of data set: ADME. The settings on record: human.

The source made the active and inactive calls. The calls are words filed in the database; no cut-off is given here.

Consider `COC(=O)CCC(=O)CNC(=O)[C@H](Cc1ccccc1)NC(=O)CCCCCn1cc(O)c(=O)cc1C`, for which the outcome with MCF7 [1], in the data set on HeLa [2], in the data set with A-375 [3], with MCF7 [4], in the data set on HeLa [5] and in the data set with A-375 [6] was inactive.

Regarding `CCCCn1c(C)cc(=O)c(O)c1COC(=O)CCC(=O)CN.Cl`, the Drug metabolism entry in data set [7], in data set [9], in data set [11], in data set [12] and in [17] was “Metabolite_Detected” in each case. Also, the outcome with MCF7 [8], in the data set with HeLa [13] and in the data set on A-375 [15] was inactive. Further, the IC50 was determined as 68.8 µM with HeLa [10], 38 µM in the data set with MCF7 [14] and 41.7 µM with A-375 [16].

With `COC(=O)CCC(=O)CNC(=O)CCCCn1cc(O)c(=O)cc1C`, the outcome in the data set on MCF7 [1], with HeLa [2], in the data set on A-375 [3], in the data set on MCF7 [4], with HeLa [5] and in the data set on A-375 [6] was inactive.

As for `COC(=O)CCC(=O)CNC(=O)CCn1cc(O)c(=O)cc1CO`, the outcome in the data set on MCF7 [1], in the data set on HeLa [2], in the data set with A-375 [3], with MCF7 [4], in the data set with HeLa [5] and in the data set on A-375 [6] was inactive.

In the case of `COC(=O)CCC(=O)CNC(=O)CCCCCn1cc(O)c(=O)cc1C`, the outcome in the data set on MCF7 [1], in the data set on HeLa [2], with A-375 [3], with MCF7 [4], in the data set with HeLa [5] and with A-375 [6] was inactive.

In the case of `Cc1cc(=O)c(O)c(COC(=O)CCC(=O)CN)n1CCc1ccccc1.Cl`, the Drug metabolism result in data set [7], in data set [9], in data set [11], in data set [12] and in data set [17] was “Metabolite_Detected” each time. Besides, the outcome with MCF7 [8], in the data set with HeLa [13] and in the data set on A-375 [15] was inactive. Further, the IC50 with HeLa [10] was found to be 30 µM; in the data set with MCF7 [14] it was 67.7 µM; with A-375 [16], 47.3 µM.

Take `COC(=O)CCC(=O)CNC(=O)[C@H](CC(C)C)NC(=O)Cn1cc(O)c(=O)cc1C`: the result in the data set on MCF7 [1], in the data set on HeLa [2], in the data set with A-375 [3], with MCF7 [4], in the data set with HeLa [5] and with A-375 [6] was inactive.

Consider `COC(=O)CCC(=O)CNC(=O)CCCn1cc(O)c(=O)cc1C`, for which the outcome in the data set on MCF7 [1], with HeLa [2], in the data set with A-375 [3], in the data set with MCF7 [4], in the data set with HeLa [5] and with A-375 [6] was inactive.

For the compound `COC(=O)CCC(=O)CNC(=O)[C@H](CC(C)C)NC(=O)Cn1ccc(=O)c(O)c1C`, the result with MCF7 [1], in the data set with HeLa [2], with A-375 [3], in the data set with MCF7 [4], in the data set on HeLa [5] and in the data set with A-375 [6] was inactive.

With `COC(=O)CCC(=O)CNC(=O)Cn1cc(O)c(=O)cc1CO`, the outcome in the data set on MCF7 [1], with HeLa [2], in the data set with A-375 [3], in the data set with MCF7 [4], in the data set on HeLa [5] and with A-375 [6] was inactive.

Regarding `COC(=O)CCC(=O)CNC(=O)[C@H](Cc1ccccc1)NC(=O)Cn1ccc(=O)c(O)c1C`, the outcome in the data set with MCF7 [1], in the data set with HeLa [2], in the data set with A-375 [3], in the data set on MCF7 [4], in the data set with HeLa [5] and in the data set with A-375 [6] was inactive.

`COC(=O)CCC(=O)CNC(=O)CCCn1cc(O)c(=O)cc1CO`: the result in the data set on MCF7 [1], in the data set on HeLa [2], with A-375 [3], with MCF7 [4], in the data set with HeLa [5] and in the data set with A-375 [6] was inactive.

For `COC(=O)CCC(=O)CNC(=O)CCn1cc(O)c(=O)cc1C`, the result in the data set on MCF7 [1], in the data set on HeLa [2], in the data set with A-375 [3], with MCF7 [4], with HeLa [5] and in the data set with A-375 [6] was inactive.

Turning to `COC(=O)CCC(=O)CNC(=O)[C@H](Cc1ccccc1)NC(=O)Cn1cc(O)c(=O)cc1C`, the result in the data set with MCF7 [1], with HeLa [2], in the data set with A-375 [3], in the data set on MCF7 [4], in the data set on HeLa [5] and with A-375 [6] was inactive.

As for `COC(=O)CCC(=O)CNC(=O)Cn1cc(O)c(=O)cc1C`, the result in the data set on MCF7 [1], with HeLa [2], in the data set with A-375 [3], in the data set on MCF7 [4], in the data set on HeLa [5] and with A-375 [6] was inactive.

For `CCCCCCCCn1c(C)cc(=O)c(O)c1COC(=O)CCC(=O)CN.Cl`, the Drug metabolism entry in data set [7], in data set [9], in [11], in data set [12] and in data set [17] was “Metabolite_Detected” throughout. Also, the results for the IC50 with HeLa [10], in the data set with MCF7 [14] and in the data set with A-375 [16] were 44.2 µM, 48.9 µM and 38.5 µM, respectively. Further, in the data set with HeLa [13], the result was Active.

`COC(=O)CCC(=O)CNC(=O)CCCCn1cc(O)c(=O)cc1CO`: the result in the data set on MCF7 [1], in the data set with HeLa [2], with A-375 [3], in the data set with MCF7 [4], with HeLa [5] and with A-375 [6] was inactive.

`COC(=O)CCC(=O)CNC(=O)CCCCCn1cc(O)c(=O)cc1CO`: the result with MCF7 [1], with HeLa [2], with A-375 [3], in the data set on MCF7 [4], in the data set with HeLa [5] and with A-375 [6] was inactive.
